Read-outs that look alike come from different tables or passages of the source.

The term IC50 denotes the midpoint of a concentration-inhibition curve.

In assay [1] the test system is HEL92.1.7 erythroleukemia cells. The assay can be described thus: Single agent IC50, alamarBlue cell viability (Example 3), HEL92.1.7. The assay is classed as cell-based, human. Particulars: XLFit. Here is the method:
(§1) Cell viability was measured using the alamarBlue assay. In brief, cells were plated in 96-well plates in triplicate at 2000 cells per well (H1975) or 5000 cells per well (HEL92.1.7) and incubated at 37° C., 5% CO2 atmosphere for 24 hr prior to the addition of drug or vehicle (0.3% DMSO) to the culture medium. After 72 hr, 10 μl/well alamarBlue was added to the wells and incubated for an additional 3 hr at 37° C., 5% CO2 atmosphere. Fluorescence (560EX/590EM […]) was measured with a SpectraMax microplate reader (Molecular Devices) and the resulting data were used to calculate cell viability, normalized to vehicle control. […] After 72 hr exposure to drug, cell viability was measured.

For assay [2], the system named is human NSCLC cell line NCI-H1975. In kind it is in vivo. Conditions: 3 doses, day 32, SCID mice. Here is the method: FBS was obtained from ATCC and all other reagents were obtained from Invitrogen Corp. (Carlsbad, Calif., USA). Cells that had been cryopreserved in liquid nitrogen were rapidly thawed at 37° C. and transferred to a tissue culture flask containing growth media and then incubated at 37° C. in a 5% CO2 incubator. […] To inactivate the trypsin, 5 mL of growth media was added and then the contents of the flask were centrifuged to pellet the cells. The supernatant was aspirated and the cell pellet was resuspended in 10 mL of growth media and the cell number determined using a hemocytometer. Cells were seeded into 175 cm^2 flasks containing 50 mL of growth media and incubated at 37° C. in a 5% CO2 incubator.
(§2) Animals were housed 4-5/cage in micro-isolators, with a 12 hr/12 hr light/dark cycle, acclimated for at least 1 week prior to use and fed normal laboratory chow ad libitum.

Assay [3] deals with H1975 cells. The assay can be described thus: Single agent IC50 in H1975 cells, alamarBlue viability (Example 2). In kind it is cell-based, human. Conditions: XLFit. The method, then:
After 72 h exposure to either drug, viability was determined by alamarBlue, data from which was used to calculate the IC50 values using XLFit software (ID Business Solutions).

The subject of assay [4] is HT29 colon cancer cells. In words: Single agent IC50, alamarBlue cell viability (Example 3), HT29. In kind it is cell-based, human. Particulars: XLFit. (Resazurin is reduced to fluorescent resorufin, in cell work by metabolically active cells.)
The subject of assay [5] is HCC827 human non-small cell lung cancer (NSCLC) cells. The assay is classed as in vivo. Conditions: day 40, SCID mice.
From the text: as §2

The test system of assay [6] is NCI-H1975 non-small cell lung carcinoma cells. The assay can be described thus: Single agent IC50, alamarBlue cell viability (Example 3), NCI-H1975. In kind it is cell-based, human. Conditions: XLFit. Here is the method:
as §1

[7] abbreviates: 72 hr exposure, read-out: Single agent IC50 values, HEL-92.1.7.

On to `CC(C)c1cc(-c2nnc(O)n2-c2ccc3c(ccn3C)c2)c(O)cc1O` [Compound 1, 3-(2,4-dihydroxy-5-isopropyl-phenyl)-4-(1-methyl-indol-5-yl)-5-hydroxy-[1,2,4] triazole], for which the IC50 in assay [1] (Homo sapiens, HEL 92.1.7, 72 hr exposure) is 32 nM; in assay [3] (Homo sapiens, NCI-H1975, 72 h exposure), 15 nM; in assay [4] (Homo sapiens, HT-29, 72 hr exposure) it was 36 nM; in assay [6] (Homo sapiens, NCI-H1975, 72 hr exposure) it was 13 nM. In addition, the “% T/C value” was 55% in assay [2] (Compound 1 50 mg/kg i.v. 1 time per week) and 26% in assay [5] (Compound 1 75 mg/kg 1×/week).
Take `CC(=O)O[C@@]12CO[C@@H]1C[C@H](O)[C@@]1(C)C(=O)[C@H](O)C3=C(C)[C@@H](OC(=O)[C@H](O)[C@@H](NC(=O)OC(C)(C)C)c4ccccc4)C[C@@](O)([C@@H](OC(=O)c4ccccc4)[C@H]21)C3(C)C` [docetaxel]: the IC50 in assay [1] (setting [7]) amounted to 14 nM; in assay [4] (72 hr exposure), 0.6 nM; in assay [6] (72 hr exposure), 1 nM. In assay [5] (docetaxel 4 mg/kg 1×/week), the “% T/C value” stood at 46%.
With `CC(=O)O[C@H]1C(=O)[C@@]2(C)[C@H]([C@H](OC(=O)c3ccccc3)[C@]3(O)C[C@H](OC(=O)[C@H](O)[C@@H](NC(=O)c4ccccc4)c4ccccc4)C(C)=C1C3(C)C)[C@]1(OC(C)=O)CO[C@@H]1C[C@@H]2O` [paclitaxel], the results for the IC50 in assay [1] (setting [7]), in assay [3] (72 h exposure) and in assay [6] (72 hr exposure) were 25 nM, 7 nM and 4 nM, respectively. Further, in assay [2] (paclitaxel 7.5 mg/kg i.v. 1 time per week), the “% T/C value” came to 38%.

(Values after patent US20120245186A1, “COMBINATION CANCER THERAPY WITH HSP90 INHIBITORY COMPOUNDS” (SYNTA PHARMACEUTICALS CORP., priority 2009, published 2012).)
